Results as given in patent publication US12629376B2, “Composition for use in the treatment of ApoL1-associated disease” (RAMBAM MED-TECH LTD., priority 2020, dated 2026).

What was measured:
[1] = test system: ApoL1-G1-induced T-REx-293 stable cell line; test: ApoL1-G1-induced cell viability assay (CellTiter-Glo); assay type: cell-based, human; conditions: for viability of ApoL1-G1 expressing cells: FIG. 1, 16 hours incubation, 0.08-10 μM, 1 ng/ml Doxycycline, luminescence live-cell count; for cell protective effect against ApoL1 toxicity: cell-based high throughput screening of 200,000 compounds, doxycycline-induced ApoL1-G1 T-REx-293 cells; for cell protective effect against ApoL1 toxicity / cell toxicity: 10 μM; for cell toxicity: high throughput screening, T-REx-293 cells
Experimental: ApoL1-G1-induced T-REx-293 stable cell line was generated by introducing Flag-tagged human G1 ApoL1 variant DNA (with African genomic sequence background) into the pcDNA4/TO plasmid, which yield expression upon Doxycycline addition. Cells were cultured in DMEM (Gibco, 41965-039) supplemented with 10% FBS, 1% penicillin-streptomycin at 37° C.
In order to estimate the effect of compounds 1, 3 and 7 on ApoL1-induced cells a cell viability assay was performed as following: cells were seeded at density 23K cells per well (96-well plate). Prior to seeding, wells were coated with Fibronectin (Biological industries, 03-090-1-05) for 1 hour at 37° C. On the following day, cells were switched to the same growth medium but containing 1 ng/ml Doxycycline (Sigma, D9891) with different concentrations of compounds 1, 3 or 7, for 16 hours. Then, cells were subjected to viability assay according to manufacturer's instructions, using CellTiter-Glo luminescent cell viability assay kit (Promega, G7570). The plate was read using Infinite 200 PRO for luminescence, which indicated live-cell count.
Induction of ApoL1-G1 variant by doxycycline causes toxicity in T-REx-293 cell line. In order to identify potential inhibitors of ApoL1 toxicity, a cell-based high throughput screening of 200,000 chemical compounds was performed. Cells were incubated with a compound solution (at 10 μM concentration).

[2] = test system: T-REx-293 cells; test: cell toxicity assay for anti-proliferative effect (Cell-Titer Glo); assay type: cell-based; conditions: FIG. 2, 10 μM, 16 hours
Experimental: T-REx-293 cells were seeded at a density of 25K cells/well on fibronectin in 96-well plates and grown in DMEM with 10% FBS, 1% P/S medium. 24 hours post-seeding medium was changed to a fresh medium comprising the tested compounds (KS-1, KS-2, or KS-8) at a concentration of 5-10 μM. Non-treated cells were used as a negative control. After 16 hours one plate of the cells was taken for cell viability test using Cell-Titer Glo reagent (Promega). Cells on the other plate were imaged using Incucyte ZOOM system.

Structure (SMILES)	viability of ApoL1-G1 expressing cells [1]	cell protective effect against ApoL1 toxicity [1]	cell toxicity [1]	cell count determined via luminescence signal (relative light units, RLU) versus non-treated cells [2]
Cc1c(C)n(Cc2ccc(Br)cc2)c(=O)n(Cc2ccc(Br)cc2)c1=O [Compound 1]	concentration dependent viability increase	highest cell protective effect	without exhibiting a significant cell toxicity	
O=c1c2ccccc2n(Cc2ccc(Cl)cc2)c(=O)n1Cc1ccc(Cl)cc1 [Compound 3]	concentration dependent viability increase	highest cell protective effect	without exhibiting a significant cell toxicity	
COc1ccccc1C(=O)Nc1cccc(N2CCC(NC(C)c3cnn(-c4ccccc4)c3)CC2)c1 (stereo not drawn) [Compound 7]	concentration dependent viability increase	highest cell protective effect	without exhibiting a significant cell toxicity	
O=c1c2ccccc2n(Cc2ccncc2)c(=O)n1Cc1ccc(Cl)cc1 [KS-1]				lower
O=c1c2ccccc2n(Cc2ccc(Cl)cc2)c(=O)n1Cc1cccs1 [KS-2]				lower
O=c1c2ccccc2n(Cc2ccc(Cl)cc2)c(=O)n1C1CC=CC1 [KS-8]				lower
